How the values were obtained:
BxPC-3 = test: Real time cell analysis (RTCA) impedance proliferation measurement; type: cell-based; conditions: administered 24 hours after seeding, monitored up to 100 hours
Panc-Tu-I = test: as above
PDEδ = PDEδ (Homo sapiens, UniProt O43924); test: Fluorescence polarization competition binding assay (displacement titration of labeled Atorvastatin-probe); conditions: fluorescence polarization assay, displacement of fluorescent-tagged Atorvastatin analog from PDEδ; read-out: KD
Text: Example C.2: Displacement titrations of labeled Atorvastatin-probe for the determination of KD values:
Table 3. KD values for compounds of general formula (I) as determined by means of fluorescence polarization assay

Compound	proliferation of K-Ras dependent cells (BxPC-3)	cell death (Panc-Tu-I; Panc-Tu-I (Figure 6f), after a certain time)	proliferation of K-Ras dependent cells (Panc-Tu-I; Panc-Tu-I, administered 24 hours after seeding, monitored up to 100 hours)	Kd (PDEδ) [nM]
Cc1ccc(-n2nc3c(=O)n(CCCC(=O)NCC(C)c4ccccc4)nc(C)c3c2C)cc1 (centres unmarked) [Compound 50, 4-(3,4-dimethyl-7-oxo-2-(p-tolyl)-2H-pyrazolo[3,4-d]pyridazin-6(7H)-yl)-N-(2-phenylpropyl)butanamide]	inhibits the proliferation	leading after a certain time to cell death	inhibits the proliferation	
Cc1c2cnn(-c3ccccc3)c(=O)c2c(C)n1CCCC(=O)NC1CCC(C)CC1 (centres unmarked) [Compound 12, 4-(5,7-dimethyl-1-oxo-2-phenyl-1H-pyrrolo[3,4-d]pyridazin-6(2H)-yl)-N-(4-methylcyclohexyl)butanamide]				< 30
Cc1ccc(CCNC(=O)CCCn2nc(C)c3c(C)n(-c4ccccc4)nc3c2=O)cc1 [Compound 37, 4-(3,4-dimethyl-7-oxo-2-phenyl-2H-pyrazolo[3,4-d]pyridazin-6(7H)-yl)-N-(4-methylphenethyl)butanamide]				< 30

Reference: patent EP2955182A1, “Pyridazinones for the treatment of cancer” (Max-Planck-Gesellschaft zur Förderung der Wissenschaften …, priority 2014, dated 2015)
